Data set [1] relates to Escherichia coli. Kind of data set: Antibacterial activity against Escherichia coli ATCC 10418 assessed as inhibition of growth visually by CLSI method. It counts as functional.
The next data set has as its system Cryptococcus neoformans. Put plainly: Antifungal activity against Cryptococcus neoformans H99 ATCC 208821 assessed as growth inhibition incubated for 36 hrs. The settings on record: var. grubii H99 ATCC 208821. It counts as functional.
Data set [2] relates to Escherichia coli. Kind of data set: Antimicrobial activity against Escherichia coli ATCC 25922 assessed as growth inhibition incubated for 18 hrs. In kind it is functional.
Data set [3] deals with Enterococcus faecalis. Put plainly: Antibacterial activity against Enterococcus faecalis ATCC 29212 assessed as inhibition of growth visually by CLSI method. It counts as functional.
In data set [4] the test system is Enterococcus faecalis. Put plainly: Antibacterial activity against vancomycin-resistant Enterococcus faecalis ATCC 51299 assessed as inhibition of growth visually by CLSI method. It counts as functional.
The nature of data set [5]: Hemolytic activity in human RBC assessed as hemolysis incubated for 1 hr by CO-ADD method. It counts as ADME, cell-based, Erythrocyte. The settings on record: red blood cells (erythrocytes).
The nature of data set [6]: Cytotoxicity against human HEK-293 cells assessed as maximal inhibition at <= 32 ug/ml incubated for 23 hrs by CO-ADD method. It counts as cell-based, HEK293. The settings on record: dose <=32 µg/ml, read-out: Imax.
A further data set concerns Acinetobacter baumannii. Kind of data set: Antimicrobial activity against Acinetobacter baumannii ATCC 19606 assessed as growth inhibition incubated for 18 hrs. In kind it is functional.
Data set [7] has as its system Staphylococcus aureus. Kind of data set: Antibacterial activity against methicillin-resistant Staphylococcus aureus NCTC 10442 assessed as inhibition of growth visually by CLSI method. In kind it is functional.
In another data set the test system is Candida albicans. Put plainly: Antifungal activity against Candida albicans ATCC 90028 assessed as growth inhibition incubated for 36 hrs. It counts as functional. The settings on record: 28A ATCC 90028.
Data set [8] is described as follows: Hemolytic activity in sheep RBC assessed as hemolysis at 5 microg/ml incubated for 2 hrs by CO-ADD method. The settings on record: red blood cells (erythrocytes), at 5 µg/mL, read-out: Activity. It counts as ADME, cell-based, Ovis aries, Erythrocyte.
A short description of data set [9]: Cytotoxicity against human HEK-293 cells incubated for 23 hrs by CO-ADD method. It counts as cell-based, HEK293.
For data set [10], the system named is Clostridioides difficile. Kind of data set: Antibacterial activity against Clostridioides difficile NSW 132 (RT027) assessed as inhibition of growth visually preincubated for 2 to 4 hrs measured after 48 hrs by CLSI method. In kind it is functional. The settings on record: time hrs <=52.
Data set [11] deals with Staphylococcus aureus. Put plainly: Antibacterial activity against Staphylococcus aureus ATCC 29213 assessed as inhibition of growth visually by CLSI method. It counts as functional.
Another data set deals with Streptococcus pneumoniae. Put plainly: Antibacterial activity against Streptococcus pneumoniae ATCC 49619 assessed as inhibition of growth visually by CLSI method. In kind it is functional.
The test system of data set [12] is Staphylococcus aureus. Kind of data set: Antibacterial activity against vancomycin intermediate susceptibility Staphylococcus aureus Mu50 assessed as inhibition of growth visually by CLSI method. It counts as functional.
In data set [13] the test system is Staphylococcus aureus. Kind of data set: Antimicrobial activity against methicillin resistant Staphylococcus aureus ATCC 43300 assessed as growth inhibition incubated for 18 hrs. In kind it is functional.
Another data set has as its system Pseudomonas aeruginosa. Put plainly: Antimicrobial activity against Pseudomonas aeruginosa ATCC 27853 assessed as growth inhibition incubated for 18 hrs. It counts as functional.
The subject of data set [14] is Clostridioides difficile. Kind of data set: Antibacterial activity against Clostridioides difficile ATCC 700057 assessed as inhibition of growth visually preincubated for 2 to 4 hrs measured after 48 hrs by CLSI method. The settings on record: time hrs <=52. It counts as functional.
Another data set concerns Klebsiella pneumoniae. Put plainly: Antimicrobial activity against multidrug-resistant Klebsiella pneumoniae ATCC 700603 assessed as growth inhibition incubated for 18 hrs. It counts as functional.
Data set [15] in a line: Hemolytic activity in human RBC assessed as maximal hemolysis at <= 32 ug/ml incubated for 1 hr by CO-ADD method. It counts as cell-based, Erythrocyte. The settings on record: red blood cells (erythrocytes), dose <=32 µg/ml, read-out: Activity.
A short description of data set [16]: Hemolytic activity in sheep RBC assessed as hemolysis at 50 microg/ml incubated for 2 hrs. In kind it is ADME, cell-based, Ovis aries, Erythrocyte. The settings on record: red blood cells (erythrocytes), at 50 µg/mL, read-out: Activity.

Regarding `CC(C)CCOc1cccc(-c2cccc(OCc3cn(C[C@@H](CCCCN)NC(=O)[C@@H](CCCNC(=N)N)n4cc(CC5CCCCC5)nn4)nn3)c2)c1.Cl.Cl`, the minimum inhibitory concentration (MIC) in the data set on Escherichia coli [1] worked out at 4 µg/mL; with Enterococcus faecalis [3], 4 µg/mL; in the data set with Enterococcus faecalis [4], 8 µg/mL; in the data set with Staphylococcus aureus [7], 4 µg/mL; with Clostridioides difficile [10], 16 µg/mL; in the data set on Staphylococcus aureus [11] it was 4 µg/mL. Further, the MIC stood at 2 µg/mL in the data set with Streptococcus pneumoniae, 4 µg/mL in the data set on Staphylococcus aureus [12] and 16 µg/mL in the data set with Clostridioides difficile [14]. The MIC80 with Cryptococcus neoformans was over 32 µg/mL; in the data set with Escherichia coli [2] it was 32 µg/mL; with Acinetobacter baumannii, 32 µg/mL; in the data set with Candida albicans, 8 µg/mL; with Staphylococcus aureus [13], at most 0.25 µg/mL; with Pseudomonas aeruginosa, 32 µg/mL. For the same compound, the MIC80 in the data set on Klebsiella pneumoniae was over 32 µg/mL. Besides, the 50% haemolytic concentration (HC50) at 1 h in data set [5] was over 32 µg/mL. In addition, the Emax at 23 h in data set [6] came to 55%. In addition, the hemolysis at 2 h, 5 microg/ml in data set [8] was 3.7%. The same compound gave a CC50 at 23 h in [9] of 28.1 µg/mL. The hemolysis at 1 h in data set [15] worked out at 94%. In addition, in [16], the hemolysis at 2 h, 50 microg/ml was determined as 76.7%.

On to `CC(C)CCOc1ccccc1-c1cccc(OCc2cn(C[C@@H](CCCCN)NC(=O)[C@@H](CCCNC(=N)N)n3cc(CC4CCCCC4)nn3)nn2)c1.Cl.Cl`, for which the MIC with Escherichia coli [1] worked out at 4 µg/mL; with Enterococcus faecalis [3], 4 µg/mL; with Enterococcus faecalis [4], 8 µg/mL; in the data set on Staphylococcus aureus [7] it was 4 µg/mL; with Clostridioides difficile [10] it was 8 µg/mL; in the data set on Staphylococcus aureus [11] it was 4 µg/mL. For the same compound, the minimal inhibitory concentration (MIC) with Streptococcus pneumoniae amounted to 2 µg/mL; in the data set with Staphylococcus aureus [12], 2 µg/mL; in the data set on Clostridioides difficile [14], 16 µg/mL. For the same compound, the MIC80 in the data set on Cryptococcus neoformans is over 32 µg/mL; in the data set with Escherichia coli [2], 2 µg/mL; in the data set with Acinetobacter baumannii, 16 µg/mL; in the data set on Candida albicans, 16 µg/mL; in the data set with Staphylococcus aureus [13], at most 0.25 µg/mL; in the data set on Pseudomonas aeruginosa it was 2 µg/mL. Further, the MIC80 in the data set on Klebsiella pneumoniae was over 32 µg/mL. In addition, the 50% haemolytic concentration (HC50) at 1 h in data set [5] was over 32 µg/mL. For the same compound, the Emax at 23 h in data set [6] was found to be 36%. Further, in [8], the hemolysis at 2 h, 5 microg/ml turned out to be 1.4%. This compound also displayed a half-maximal cytotoxic concentration (CC50) at 23 h in data set [9] of over 32 µg/mL. For the same compound, the hemolysis at 1 h in [15] was 81%. The hemolysis at 2 h, 50 microg/ml in [16] came to 38.2%.

As to `CC(C)CCOc1ccccc1-c1ccc(OCc2cn(C[C@@H](CCCCN)NC(=O)[C@@H](CCCNC(=N)N)n3cc(CC4CCCCC4)nn3)nn2)cc1.Cl.Cl`, the minimum inhibitory concentration (MIC) came to 8 µg/mL with Escherichia coli [1]; 4 µg/mL in the data set on Enterococcus faecalis [3]; 16 µg/mL with Enterococcus faecalis [4]; 4 µg/mL in the data set on Staphylococcus aureus [7]; 8 µg/mL with Clostridioides difficile [10]; 2 µg/mL with Staphylococcus aureus [11]. In addition, the results for the MIC in the data set with Streptococcus pneumoniae, in the data set with Staphylococcus aureus [12] and in the data set on Clostridioides difficile [14] were 1 µg/mL, 4 µg/mL and 16 µg/mL, respectively. Further, the MIC80 is over 32 µg/mL in the data set on Cryptococcus neoformans; 8 µg/mL with Escherichia coli [2]; 4 µg/mL in the data set with Acinetobacter baumannii; 16 µg/mL in the data set on Candida albicans; at most 0.25 µg/mL in the data set with Staphylococcus aureus [13]; 8 µg/mL in the data set with Pseudomonas aeruginosa. Moreover, in the data set on Klebsiella pneumoniae, the MIC80 was found to be 32 µg/mL. Besides, in [5], the HC50 at 1 h is over 32 µg/mL. Further, the Emax at 23 h in data set [6] came to 40%. In data set [8], the hemolysis at 2 h, 5 microg/ml worked out at 2%. Moreover, the half-maximal cytotoxic concentration (CC50) at 23 h in [9] is over 32 µg/mL. Besides, the hemolysis at 1 h in data set [15] was found to be 82%. The hemolysis at 2 h, 50 microg/ml in data set [16] is 66.4%.

Source of the values: ChEMBL document CHEMBL4715932, “Positional Isomers of Biphenyl Antimicrobial Peptidomimetic Amphiphiles” (ACS Med Chem Lett, 2021).
